The source of these data is ChEMBL document CHEMBL1201862, “PubChem BioAssay data set” (2004).

Molecules are shown by their SMILES.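 Each compound was tested at five concentrations against cells in 96-well plates for 48 hours. Abbreviation: GI50, concentration required for 50% inhibition of growth.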 Calls of active or inactive are those of the source. No stated cut-off is given here; in the data, active = GI50 up to about 1.1 µM and inactive = higher.

Assay in all cases: NCI anticancer screen, dose series, 48 h
For test [1], the system named is DLD-1.
Test [2] has as its system DMS-114.
The subject of test [3] is DMS-273.
The test system of test [4] is KM-20L2.
The test system of test [5] is LXFL 529.
The subject of test [6] is M19-MEL.
Test [7] deals with RXF 631.
In test [8] the test system is XF498.
The subject of test [9] is SNB-78.

On to `Nc1nc2c(ncn2C2CCC(CO)O2)c(=O)n1C(=O)c1ccccc1` (configuration not stated), for which the GI50 in test [1], in test [2], in test [3], in [4], in test [5] and in test [6] was > 100 µM (inactive) throughout. Further, the GI50 in [7] and in test [8] was > 100 µM (inactive) each time.
In the case of `CCOC(=O)c1c(NNc2ccccc2)nc2ccccc2c1-c1ccccc1`, the GI50 is 25.9 µM (inactive) in test [1]; 17.1 µM (inactive) in test [2]; 43.2 µM (inactive) in test [3]; 35.5 µM (inactive) in test [4]; 19 µM (inactive) in test [5]; 24.3 µM (inactive) in [6]. Also, the GI50 in [9] is 27 µM (inactive).
Regarding `CC[C@]1(O)C[C@H]2CN(CCc3c([nH]c4ccccc34)[C@@](C(=O)OC)(c3cc4c(cc3OC)N(C)[C@H]3[C@@](O)(C(=O)OC)[C@H](OC(C)=O)[C@]5(CC)C=CCN6CC[C@]43[C@@H]65)C2)C1`, the GI50 in [1] was 0.00433 µM (active); in [3], 0.000375 µM (active); in test [4], 0.000397 µM (active); in test [5], 0.00045 µM (active); in test [7], 0.00262 µM (active); in [9], 0.00173 µM (active). Moreover, the GI50 in test [8] is 0.000402 µM (active).
On to `Cc1ccc(S(=O)(=O)N2c3ccccc3[C@H]3CCC=C[C@H]32)cc1`, for which the GI50 in test [1] is 13.3 µM (inactive); in test [2] it was 3.12 µM (inactive); in [3], 3.66 µM (inactive); in test [4], 3.18 µM (inactive); in test [5] it was 9.55 µM (inactive); in test [6] it was 4.68 µM (inactive). In addition, the values for the GI50 in test [7], in test [9] and in [8] were 10.8 µM (inactive), 19.2 µM (inactive) and 8.65 µM (inactive), respectively.
For `FC(F)(F)C12C34C=CC5(CCC6(C=CC1(CC3)O6)C52C(F)(F)F)O4` (configuration not stated), the GI50 in test [3], in test [4], in test [5], in test [6], in test [9] and in test [8] was > 100 µM (inactive) each time.
`CC(=O)OC1C/C(C)=C/[C@H](O)CC(C)/C=C/[C@@]2(C)CCC(C(C)(C)O)C12` (some centres not stated): the GI50 in test [1], in test [2], in [3], in [4], in [5] and in [6] was > 100 µM (inactive) each time. Moreover, the GI50 in test [7], in test [9] and in [8] was > 100 µM (inactive) throughout.
Regarding `CCCCCCCCCCCCCCCCSS(C)(=O)=O`, the GI50 in [1] was 11.6 µM (inactive); in test [3] it was 27 µM (inactive); in [4] it was 37.6 µM (inactive); in test [5], 8.75 µM (inactive); in test [7] it was 16.3 µM (inactive); in test [8] it was 6.1 µM (inactive).
As for `Nc1ccc(-c2cc(C(=O)Nc3nccs3)nc(S)n2)cc1`, the GI50 in test [1], in [2], in test [4], in [5], in test [6] and in test [9] was > 100 µM (inactive) throughout. The GI50 in test [8] was > 100 µM (inactive).
For the compound `CCNc1nnc(CSc2nc(-c3ccccc3)c(-c3ccccc3)[nH]2)s1`, the GI50 in test [1] was 22.7 µM (inactive); in [2] it was 20.7 µM (inactive); in test [3], 22.2 µM (inactive); in test [4] it was 27.8 µM (inactive); in test [5], 24.7 µM (inactive); in [6], 16.3 µM (inactive). For the same compound, the GI50 in [9] was 30.8 µM (inactive).
Turning to `O=C1CC(c2c(-c3ccccc3)[nH]c3ccccc23)C(=O)N1` (configuration not stated), the GI50 in [1], in [2], in test [3], in test [4], in [5] and in [6] was > 100 µM (inactive) each time. For the same compound, the GI50 in test [7], in [9] and in test [8] was > 100 µM (inactive) each time.
Turning to `CCOc1ccccc1NC(=O)CCc1nnc2s/c(=C\CCc3ccccc3)c(=O)n12`, the GI50 in test [1], in test [2], in [3], in test [4], in [5] and in test [6] was > 100 µM (inactive) in each case. In addition, the GI50 in test [9] and in [8] was > 100 µM (inactive) in each case.
In the case of `Cn1c(N)[n+](C(=O)OCc2ccccc2)c(=O)c2c1ncn2C(=O)OCc1ccccc1`, the GI50 is 95.1 µM (inactive) in test [1]; 99.8 µM (inactive) in test [2]; > 100 µM (inactive) in [3]; > 100 µM (inactive) in test [4]; > 100 µM (inactive) in test [5]; > 100 µM (inactive) in test [6]. For the same compound, the GI50 in [9] is 41.5 µM (inactive).
Regarding `Cc1c(/C=N/NS(=O)(=O)c2ccccc2)no[n+]1[O-]`, the GI50 in test [2], in test [4] and in [5] was > 100 µM (inactive) each time.
Regarding `CCc1cccc(CC)c1NC(=O)C1=CNC(C)=C(C(=O)Nc2c(CC)cccc2CC)C1c1ccc(O)c(OC)c1` (configuration not stated), the GI50 in test [1] is 47 µM (inactive); in test [2], 24.5 µM (inactive); in test [4], 49.5 µM (inactive); in test [5] it was 27.1 µM (inactive); in test [6], 34.4 µM (inactive); in test [7] it was 37.9 µM (inactive). The GI50 in [9] is 28.7 µM (inactive); in test [8], 26.6 µM (inactive).
Turning to `O=C1C(Cl)C(c2cc(Br)ccc2O)N1n1cnc2ccccc2c1=O` (configuration not stated), the GI50 is 15.6 µM (inactive) in [1]; 5.46 µM (inactive) in [2]; 15.7 µM (inactive) in test [3]; 22.2 µM (inactive) in test [4]; 17.1 µM (inactive) in test [5]; 10.7 µM (inactive) in test [6]. Also, the GI50 was 30.9 µM (inactive) in [9] and 28.5 µM (inactive) in test [8].
For `Cn1c(O)c(C(=O)NC2CCCCC2)c(=O)n(C)c1=S`, the GI50 in test [1] is 4.93 µM (inactive); in [4], 8.04 µM (inactive); in test [5], 2.78 µM (inactive); in test [7], 4.91 µM (inactive).
With `COc1cc2ccc3c4cc(OC)c(OCc5ccccc5)cc4cnc3c2cc1OC`, the GI50 in test [1], in test [2], in test [4], in test [5], in [6] and in test [9] was > 100 µM (inactive) each time. The GI50 in test [8] is > 100 µM (inactive).
As for `N#CC1(C2SCC[S+]2[O-])C2=C(C(=O)c3ccccc3C2=O)N2CCCC21` (configuration not stated), the GI50 in test [1] is 2.74 µM (inactive); in [2], 2.14 µM (inactive); in test [3], 3.03 µM (inactive); in [4] it was 4.97 µM (inactive); in test [5], 2.74 µM (inactive); in test [6] it was 0.286 µM (active). Moreover, the figures for the GI50 in test [7], in test [9] and in [8] were 1.46 µM (inactive), 1.49 µM (inactive) and 2.55 µM (inactive), respectively.
As to `CN1C(=O)N(C)C(N2CCCC2)c2c1nc1ccccn1c2=O` (configuration not stated), the GI50 in test [1] was 35.3 µM (inactive); in test [2], 56.2 µM (inactive); in test [3], 43.4 µM (inactive); in test [4], > 100 µM (inactive); in test [5], 63.5 µM (inactive); in test [6], 92.5 µM (inactive). For the same compound, the GI50 was 57.4 µM (inactive) in test [9] and 77.8 µM (inactive) in [8].
Regarding `CC(=O)OC[C@]1(C)CCCC2(C)C1CCC1C=C(C)[C@H]3CCC12C3` (some centres not stated), the GI50 in [1] is 99.3 µM (inactive); in [4] it was 42.9 µM (inactive); in [5], > 100 µM (inactive); in test [6], 63.4 µM (inactive); in [9], 45.9 µM (inactive).
